We go through five compounds from patent publication US4978673A, “Organic salts of physostigmine derivatives” (priority 1987, dated 1990).

Data set [1] can be described thus: toxicity in the rat (LD50, oral). The following applies: in vivo.
Data set [2] is described as follows: in vivo. The following applies: rat, po.
A short description of data set [3]: water solubility. In kind it is physicochemical.

Converted amounts (≈) assume the structure as drawn.

What is called LD50 is the dose expected to kill half of the subjects tested. In data set [1], `CCCCCCCCCNC(=O)Oc1ccc2c(c1)C1(C)CCN(C)C1N2C` (centres unmarked) [***] came in with a median lethal dose (LD50) of 50 mg/kg.

With `CCCCNC(=O)Oc1ccc2c(c1)C1(C)CCN(C)C1N2C` (centres unmarked) [**], in data set [1], the median lethal dose (LD50) stood at 6 mg/kg.

On to `CCCCCCCNC(=O)Oc1ccc2c(c1)C1(C)CCN(C)C1N2C` (centres unmarked) [*], for which, in data set [2], the LD50 was determined as 20 mg/kg.

By solubility is commonly meant the dissolved amount per volume that the medium holds. Read a low solubility as little dissolved substance. In turn, `CCCCCCCNC(=O)Oc1ccc2c(c1)C1(C)CCN(C)C1N2C` (centres unmarked) [Example 1] returned a solubility in data set [3] (water) of 700 mg/mL (≈ 1950 mM).

With `CCCCCCCNC(=O)Oc1ccc2c(c1)C1(C)CCN(C)C1N2C` (centres unmarked) [corresponding non-salified derivative], the “water solubility (in words)” value in data set [3] (non-salified derivative) is “insoluble”.
